Experimental data reported in patent publication US7183061B2, “Method of expressing Heliothis ecdysone receptor fusion protein” (Syngenta Limited, priority 1996, dated 2007).

Legend:
[1] = test system: glucocorticoid receptor transactivating and DNA binding domains fused to the ecdysone receptor hinge and ligand binding domains; settings: mammalian cells; cited from earlier work
[2] = target: T1, glucocorticoid/Drosophila ecdysone chimeric receptor (UniProt P04150+P34021); test: Maize protoplast GUS reporter assay with pMF6GREcRS and p221.9GRE6; assay type: cell-based; settings: maize protoplasts, reporter plus effector, concentration not given
T1 construct: expressed in transfected cells; host or cells: maize suspension-culture protoplasts
T1 sequence (P04150+P34021 with tags, fused parts or gaps): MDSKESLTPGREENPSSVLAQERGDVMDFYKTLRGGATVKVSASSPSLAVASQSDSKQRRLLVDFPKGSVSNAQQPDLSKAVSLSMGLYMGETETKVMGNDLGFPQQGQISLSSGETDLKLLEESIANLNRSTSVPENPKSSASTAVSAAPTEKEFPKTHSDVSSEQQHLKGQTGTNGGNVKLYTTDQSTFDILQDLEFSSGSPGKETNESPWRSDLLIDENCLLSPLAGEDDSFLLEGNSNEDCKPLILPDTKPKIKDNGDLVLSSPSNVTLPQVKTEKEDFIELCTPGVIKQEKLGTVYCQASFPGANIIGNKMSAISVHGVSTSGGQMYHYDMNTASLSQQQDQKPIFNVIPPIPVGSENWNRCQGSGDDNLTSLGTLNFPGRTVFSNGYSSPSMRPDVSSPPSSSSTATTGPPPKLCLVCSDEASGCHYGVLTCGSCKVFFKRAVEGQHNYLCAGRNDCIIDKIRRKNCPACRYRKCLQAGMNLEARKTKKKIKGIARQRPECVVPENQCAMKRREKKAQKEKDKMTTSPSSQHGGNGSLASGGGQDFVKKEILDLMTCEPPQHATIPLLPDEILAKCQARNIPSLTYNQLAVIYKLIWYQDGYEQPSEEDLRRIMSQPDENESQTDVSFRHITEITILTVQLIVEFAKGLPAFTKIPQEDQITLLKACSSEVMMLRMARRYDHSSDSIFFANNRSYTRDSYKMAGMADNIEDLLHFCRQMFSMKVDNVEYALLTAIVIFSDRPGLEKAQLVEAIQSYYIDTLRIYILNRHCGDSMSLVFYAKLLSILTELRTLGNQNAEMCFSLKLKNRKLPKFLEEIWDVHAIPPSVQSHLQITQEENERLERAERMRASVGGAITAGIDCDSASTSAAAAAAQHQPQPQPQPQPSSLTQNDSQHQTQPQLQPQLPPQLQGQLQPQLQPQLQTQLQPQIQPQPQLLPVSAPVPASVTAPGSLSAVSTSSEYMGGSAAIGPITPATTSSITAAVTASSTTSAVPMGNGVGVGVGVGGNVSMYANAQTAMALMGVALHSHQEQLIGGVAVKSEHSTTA

Structure (SMILES): CC(C)(O)CC[C@@H](O)[C@](C)(O)[C@H]1CC[C@@]2(O)C3=CC(=O)[C@@H]4C[C@@H](O)[C@@H](O)C[C@]4(C)[C@H]3CC[C@]12C [20-hydroxyecdysone]
- activity of chimeric receptor as homodimer [1]: not responsive

Structure (SMILES): CC(C)(C)N(NC(=O)c1ccccc1)C(=O)c1ccccc1 [RH5849, 1,2-dibenzoyl, 1-tert-butyl hydrazide]
- chemical induced reporter gene activity / induced levels of expression [2]: no chemical induced reporter gene activity
